In patent US20080269251A1, “Substituted Pyrazinone Derivatives as Alpha2C-Adrenoreceptor Antagonists” (priority 2005, published 2008):

Key:
[1] = target: T1, human adrenergic-α2A receptor (Homo sapiens, UniProt P08913); test: Radioligand binding experiment for hα2A-adrenergic receptor ([3H]raulwolscine); settings: [3H]raulwolscine 1 nM, 60 minutes at 25° C.; for IC50: read-out: h-α2A pIC50 (converted)
T1 construct: expressed in transfected cells; host or cells: CHO cells, stably transfected; membrane preparation
T1 sequence (P08913 1-465): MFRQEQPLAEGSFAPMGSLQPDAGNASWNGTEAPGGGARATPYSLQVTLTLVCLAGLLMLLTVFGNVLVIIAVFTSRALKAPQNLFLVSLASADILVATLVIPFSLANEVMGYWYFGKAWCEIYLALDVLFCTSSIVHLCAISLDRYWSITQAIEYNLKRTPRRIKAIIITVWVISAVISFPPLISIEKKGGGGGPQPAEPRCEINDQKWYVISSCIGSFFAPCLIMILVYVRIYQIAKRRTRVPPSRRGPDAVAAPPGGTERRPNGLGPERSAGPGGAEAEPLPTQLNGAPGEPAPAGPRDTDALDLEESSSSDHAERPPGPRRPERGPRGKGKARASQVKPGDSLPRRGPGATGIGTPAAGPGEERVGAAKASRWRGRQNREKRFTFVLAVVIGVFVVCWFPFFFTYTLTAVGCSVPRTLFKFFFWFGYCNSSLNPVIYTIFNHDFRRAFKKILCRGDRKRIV
Procedure: (§1) The interaction of the compounds of Formula (I) with α2C-adrenoceptor receptors was assessed in in vitro radioligand binding experiments. In general, a low concentration of a radioligand with a high binding affinity for a particular receptor or transporter is incubated with a sample of a tissue preparation enriched in a particular receptor or transporter or with a preparation of cells expressing cloned human receptors in a buffered medium. During the incubation, the radioligand binds to the receptor or transporter. When equilibrium of binding is reached, the receptor bound radioactivity is separated from the non-bound radioactivity, and the receptor- or transporter-bound activity is counted. The interaction of the test compounds with the receptor is assessed in competition binding experiments. Various concentrations of the test compound are added to the incubation mixture containing the receptor- or transporter preparation and the radioligand. The test compound in proportion to its binding affinity and its concentration inhibits binding of the radioligand. The radioligand used for […] receptor binding was [^3H]-raulwolscine.
(§2) CHO cells, stabile transfected with human adrenergic-α2A, -α2B or α2C receptor cDNA, were cultured in Dulbecco's Modified Eagle's Medium (DMEM)/Nutrient mixture Ham's F12 (ratio 1:1)(Gibco, Gent-Belgium) supplemented with 10% heat inactivated fetal calf serum (Life Technologies, Merelbeke-Belgium) and antibiotics (100 IU/ml penicillin G, 100 μg/ml streptomycin sulphate, 110 μg/ml pyruvic acid and 100 μg/ml L-glutamine). One day before collection, cells were induced with 5 mM sodiumbutyrate. Upon 80-90% of confluence, cells were scraped in phosphate buffered saline without Ca^2+ and Mg^2+ and collected by centrifugation at 1500×g for 10 minutes. The cells were homogenised in Tris-HCl 50 mM using an Ultraturrax homogenizer and centrifuged for 10 minutes at 23,500×g. The pellet was washed once by resuspension and rehomogenization and the final pellet was resuspended in Tris-HCl, divided in 1 ml aliquots and stored at −70° C.
(§3) Membranes were thawed and re-homogenized in incubation buffer (glycylglycine 25 mM, pH 8.0). In a total volume of 500 μl, 2-10 μg protein was incubated with [^3H]raulwolscine (NET-722) (New England Nuclear, USA) (1 nM final concentration) with or without competitor for 60 minutes at 25° C. followed by rapid filtration over GF/B filter using a Filtermate196 harvester (Packard, Meriden, Conn.). Filters were rinsed extensively with ice-cold rinsing buffer (Tris-HCl 50 mM pH 7.4). Filter-bound radioactivity was determined by scintillation counting in a Topcount (Packard, Meriden, Conn.) and results were expressed as counts per minute (cpm). Non-specific binding was determined in the presence of 1 μM oxymetazoline for hα2A- and hα2B receptors and 1 μM spiroxatrine for hα2C receptors.
(§4) Data from assays in the presence of compound were calculated as a percentage of total binding measured in the absence of test compound. Inhibition curves, plotting percent of total binding versus the log value of the concentration of the test compound, were automatically generated, and sigmoidal inhibition curves were fitted using non-linear regression. The pIC50 values of test compounds were derived from individual curves.

[2] = target: T2, 5HT-transporter (Homo sapiens, UniProt P31645); test: Binding experiment for the 5HT-transporter ([3H]paroxetine, human platelet membranes); settings: [3H]paroxetine 0.5 nM, 60 min at 25° C.; for IC50: read-out: h-5HTT pIC50 (converted)
T2 construct: Human platelet membranes (Oceanix Biosciences Corporation, Hanover, Md., USA) were thawed; tissue Oceanix Biosciences Corporation, Hanover, Md., USA; host or cells: human platelet membranes
T2 sequence (P31645 whole entry): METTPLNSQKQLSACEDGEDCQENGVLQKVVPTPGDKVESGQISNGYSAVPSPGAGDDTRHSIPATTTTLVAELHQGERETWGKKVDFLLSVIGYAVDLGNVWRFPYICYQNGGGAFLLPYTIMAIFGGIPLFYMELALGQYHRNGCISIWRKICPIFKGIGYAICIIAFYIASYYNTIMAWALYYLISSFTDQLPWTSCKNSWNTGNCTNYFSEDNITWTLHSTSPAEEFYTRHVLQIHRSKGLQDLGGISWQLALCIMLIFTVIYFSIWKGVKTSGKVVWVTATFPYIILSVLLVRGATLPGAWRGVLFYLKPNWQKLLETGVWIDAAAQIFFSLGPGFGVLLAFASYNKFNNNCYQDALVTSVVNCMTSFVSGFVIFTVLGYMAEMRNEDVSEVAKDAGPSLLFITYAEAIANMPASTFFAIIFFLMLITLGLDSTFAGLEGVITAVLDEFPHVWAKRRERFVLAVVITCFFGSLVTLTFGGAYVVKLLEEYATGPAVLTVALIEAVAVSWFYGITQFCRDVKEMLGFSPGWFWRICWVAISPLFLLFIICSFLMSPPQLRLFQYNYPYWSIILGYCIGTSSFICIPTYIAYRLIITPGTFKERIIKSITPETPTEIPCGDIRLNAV
Procedure: as §1
Human platelet membranes (Oceanix Biosciences Corporation, Hanover, Md., USA) were thawed, diluted in buffer (Tris-HCl 50 mM, 120 mM NaCl and 5 mM KCl) and quickly (max 3 s) homogenised with an Ultraturrax homogenizer. […] Incubation was stopped by rapid filtration of the incubation mixture over GF/B filters, pre-wetted with 0.1% polyethyleneamine, using a Filtermate196 harvester (Packard, Meriden, Conn.). Filters were rinsed extensively with ice-cold buffer and radioactivity on the filters was counted in a Topcount liquid scintillation counter (Packard, Meriden, Conn.). Data were expressed as cpm. Imipramine (at 1 μM final concentration) was used to determine the non-specific binding.
as §4

[3] = target: T3, human adrenergic-α2C receptor (Homo sapiens, UniProt P18825); test: Radioligand binding experiment for hα2C-adrenoceptor ([3H]raulwolscine); settings: [3H]raulwolscine 1 nM, 60 minutes at 25° C.; for IC50: read-out: h-α2C pIC50 (converted)
T3 construct: expressed in transfected cells; host or cells: CHO cells, stably transfected; membrane preparation
T3 sequence (P18825 1-462): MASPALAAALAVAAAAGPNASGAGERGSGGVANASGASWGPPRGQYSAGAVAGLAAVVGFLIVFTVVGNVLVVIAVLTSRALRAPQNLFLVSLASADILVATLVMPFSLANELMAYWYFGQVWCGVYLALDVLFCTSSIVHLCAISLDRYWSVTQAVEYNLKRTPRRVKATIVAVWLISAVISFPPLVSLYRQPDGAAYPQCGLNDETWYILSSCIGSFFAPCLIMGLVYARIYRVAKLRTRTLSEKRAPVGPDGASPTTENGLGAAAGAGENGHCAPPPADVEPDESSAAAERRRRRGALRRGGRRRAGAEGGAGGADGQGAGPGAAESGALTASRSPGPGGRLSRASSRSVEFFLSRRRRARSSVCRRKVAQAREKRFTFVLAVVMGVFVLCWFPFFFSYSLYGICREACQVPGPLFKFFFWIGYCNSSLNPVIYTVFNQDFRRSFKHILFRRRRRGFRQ
Procedure: as §1, §2, §3, §4

Compound	IC50 [1] [nM]	IC50 [2] [nM]	IC50 [3] [nM]	h-α2A pIC50 [1]	h-5HTT pIC50 [2]	h-α2C pIC50 [3]
CC(C)(C)OC(=O)NCc1ccc(Cn2ccnc(NC3CCN(Cc4ccc5ccccc5c4)CC3)c2=O)cc1 [1-34]	251	79.4	100			
CN(CCCn1ccnc(NC2CCN(Cc3ccc4ccccc4c3)CC2)c1=O)C(=O)OC(C)(C)C [1-35]	316	39.8	25.1			
COC(=O)CN(C)Cc1ccc(-n2ccnc(NC3CCN(Cc4ccc5ccccc5c4)CC3)c2=O)cc1 [1-36]	501	158	50.1			
C#CCN(C)C(=O)Cn1ccnc(NC2CCN(Cc3ccc4ccccc4c3)CC2)c1=O [1-38]	398	1580	63.1			
CN(C)CCN(C)Cc1ccc(-n2ccnc(NC3CCN(Cc4ccc5ccccc5c4)CC3)c2=O)cc1 [1-39]	79.4	63.1	15.8			
CCCNC(=O)NCc1ccc(-n2ccnc(NC3CCN(Cc4ccc5ccccc5c4)CC3)c2=O)cc1 [1-40]	1260	50.1	100			
O=C(NCc1ccc(-n2ccnc(NC3CCN(Cc4ccc5ccccc5c4)CC3)c2=O)cc1)NCC1CCCCC1 [1-41]				6.2	7.2	7.2
CN(C)CCNC(=O)NCc1ccc(-n2ccnc(NC3CCN(Cc4ccc5ccccc5c4)CC3)c2=O)cc1 [1-44]	63.1	7.94	12.6			
COCCNC(=O)NCc1ccc(-n2ccnc(NC3CCN(Cc4ccc5ccccc5c4)CC3)c2=O)cc1 [1-45]	398	25.1	31.6			
COCCCNC(=O)NCc1ccc(-n2ccnc(NC3CCN(Cc4ccc5ccccc5c4)CC3)c2=O)cc1 [1-46]	501	63.1	39.8			
COC(=O)CCNC(=O)NCc1ccc(-n2ccnc(NC3CCN(Cc4ccc5ccccc5c4)CC3)c2=O)cc1 [1-47]				6.3	7.6	7.5
Cc1ccc(CNC(=O)NCc2ccc(-n3ccnc(NC4CCN(Cc5ccc6ccccc6c5)CC4)c3=O)cc2)cc1F [1-49]	501	39.8	39.8			
O=C(NCc1ccc(-n2ccnc(NC3CCN(Cc4ccc5ccccc5c4)CC3)c2=O)cc1)NCc1cc(F)cc(C(F)(F)F)c1 [1-50]	1260	63.1	200			
O=C(NCCCn1ccnc(NC2CCN(Cc3ccc4ccccc4c3)CC2)c1=O)Nc1ccccc1 [1-53]	631	7.94	20			
O=C(NCc1ccc(-n2ccnc(NC3CCN(Cc4ccc5ccccc5c4)CC3)c2=O)cc1)Nc1cc(Cl)ccc1Cl [1-54]				6.0	6.8	6.7
CCOC(=O)N1CCC(NC(=O)NCc2ccc(-n3ccnc(NC4CCN(Cc5ccc6ccccc6c5)CC4)c3=O)cc2)CC1 [1-55]	631	63.1	100			
CN(CC(=O)N(C)C)Cc1ccc(-n2ccnc(NC3CCN(Cc4ccc5ccccc5c4)CC3)c2=O)cc1 [1-57]	251	50.1	15.8			
CC(=O)NCCN(C)Cc1ccc(-n2ccnc(NC3CCN(Cc4ccc5ccccc5c4)CC3)c2=O)cc1 [1-60]	200	10	25.1			
CC(=O)NCCNCc1ccc(-n2ccnc(NC3CCN(Cc4ccc5ccccc5c4)CC3)c2=O)cc1 [1-61]	200	10	12.6			
CN(C(=O)Cn1ccnc(NC2CCN(Cc3ccc4ccccc4c3)CC2)c1=O)c1ccccc1 [1-63]	158	63.1	25.1			
O=C(Cn1ccnc(NC2CCN(Cc3ccc4ccccc4c3)CC2)c1=O)Nc1ccccc1 [1-64]	158	126	31.6			

Results, then the compound that gave them:

IC50 [1] [nM]	IC50 [2] [nM]	IC50 [3] [nM]	h-α2A pIC50 [1]	h-5HTT pIC50 [2]	h-α2C pIC50 [3]	Compound
631	12.6	39.8				COC(=O)CCCC(=O)NCc1ccc(-n2ccnc(NC3CCN(Cc4ccc5ccccc5c4)CC3)c2=O)cc1 [1-37]
501	5.01	31.6				O=C(Cc1ccccc1)NCc1ccc(-n2ccnc(NC3CCN(Cc4ccc5ccccc5c4)CC3)c2=O)cc1 [1-42]
251	6.31	39.8				O=C(CCc1ccccc1)NCc1ccc(-n2ccnc(NC3CCN(Cc4ccc5ccccc5c4)CC3)c2=O)cc1 [1-43]
316	10	39.8				O=C(NCc1ccccc1)NCc1ccc(-n2ccnc(NC3CCN(Cc4ccc5ccccc5c4)CC3)c2=O)cc1 [1-48]
			6.4	7.8	7.1	O=C(NCCCc1ccccc1)NCc1ccc(-n2ccnc(NC3CCN(Cc4ccc5ccccc5c4)CC3)c2=O)cc1 [1-51]
			6.3	8.1	7.2	O=C(NCc1ccc(-n2ccnc(NC3CCN(Cc4ccc5ccccc5c4)CC3)c2=O)cc1)Nc1ccccc1 [1-52]
251	15.8	25.1				NC(=O)CCNCc1ccc(-n2ccnc(NC3CCN(Cc4ccc5ccccc5c4)CC3)c2=O)cc1 [1-56]
79.4	6.31	7.94				CCN(CC)CCC(=O)NCc1ccc(-n2ccnc(NC3CCN(Cc4ccc5ccccc5c4)CC3)c2=O)cc1 [1-58]
316	31.6	39.8				CN(C)C(=O)CCC(=O)NCc1ccc(-n2ccnc(NC3CCN(Cc4ccc5ccccc5c4)CC3)c2=O)cc1 [1-59]
			6.4	7.5	7.3	CC(=O)NCCCC(=O)NCc1ccc(-n2ccnc(NC3CCN(Cc4ccc5ccccc5c4)CC3)c2=O)cc1 [1-62]
